IC50 data for 24 compounds are collected here from US11104690B2, “Indazole derivatives useful as inhibitors of diacylglyceride O-acyltransferase 2” (Merck Sharp & Dohme Corp., priority 2016, dated 2021).

The target of the experiment is Human DGAT2 (Homo sapiens (Human), UniProt Q96PD7). Description: DGAT2 Enzymatic Activity Assay (triolein formation, LC/MS/MS). In kind it is biochemical. The following applies: hDGAT2 Sf-9 membrane prep; 25 μM diolein, 10 μM oleoyl-CoA; room temperature. How it is done: Sf-9 insect cells were maintained in Grace's insect cell culture medium with 10% heated-inactivated fetal bovine serum, 1% Pluronic F-68 and 0.14 μg/m Kanamycine sulfate in Erlenmeyer flasks at 28° C. in a shaker incubator. After infection with untagged hDGAT2 baculovirus at multiplicity of infection (MOI) 0.1 for 48 hours, cells were harvested. Cell pellets were suspended in buffer containing 10 mM Tris-HC (pH 7.5), 1 mM EDTA (pH 8.0), 250 mM sucrose and Complete Protease Inhibitor Cocktail (Roche Diagnostics Corp., Indianapolis, Ill.), and sonicated on ice. Membrane fractions were isolated by ultracentrifugation (100,000×g pellet), resuspended in the same buffer, and frozen (−80° C.) for later use. The protein concentration was determined with the BCA Protein Assay kit (Pierce Biotechnology Inc., Rockford, Ill.). Expression of protein levels was analyzed by immunoblotting with goat polyclonal DGAT2 antibody C-15 and donkey anti-goat IgG HRP (Santa Cruz Biotechnology, Inc., Santa Cruz, Calif.) followed by detection with ECL reagent (GE Healthcare, Piscataway, N.J.).
Chain of Human DGAT2 (Q96PD7 whole entry): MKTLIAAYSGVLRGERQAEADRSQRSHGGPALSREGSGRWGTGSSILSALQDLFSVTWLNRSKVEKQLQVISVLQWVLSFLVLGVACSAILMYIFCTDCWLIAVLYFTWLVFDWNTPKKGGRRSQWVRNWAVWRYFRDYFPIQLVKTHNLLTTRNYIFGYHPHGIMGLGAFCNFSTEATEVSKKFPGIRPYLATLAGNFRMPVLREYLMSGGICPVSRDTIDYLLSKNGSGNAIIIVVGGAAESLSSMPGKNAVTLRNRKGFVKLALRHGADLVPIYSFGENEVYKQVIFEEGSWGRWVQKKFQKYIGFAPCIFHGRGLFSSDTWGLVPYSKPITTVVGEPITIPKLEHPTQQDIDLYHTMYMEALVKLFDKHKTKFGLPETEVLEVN
LC/MS/MS analyses were performed using Thermal Fisher's LX4-TSQ Vantage system. This system consists of an Agilent binary high-performance liquid chromatography (HPLC) pumps and a TSQ Vantage triple quadrupole MS/MS instrument. For each sample, 2 μL samples from the top organic layer of in-plate liquid-liquid extraction were injected onto a Thermo Betabasic C4 column (2.1 mm×20 mm, 5 μm particle size). The samples were then eluted using the following conditions; mobile phase: MeOH/water with 0.1% ammonium format=92/8 (v/v), flow rate: 1 mL/min, temperature: 25 C. Data was acquired in positive mode using a heated electrospray ionization (HESI) interface. The operational parameters for the TSQ Vantage MS/MS instrument were a spray voltage of 3000 V, capillary temperature of 280° C., vaporizer temperature 400° C., shealth gas 60 arbitrary unit, Aux gas 40 arbitrary units, S-lens 113 and collision gas 0.16 Pascals. […] (SRM) chromatograms of triolein (Q1: 902.9>Q3:602.3) and internal standard ([…]) were collected for 40 sec. The peak area was integrated by Xcalibur Quan software. The ratio between the triolein generated in the reaction and spiked in internal standard was used to generate percentage inhibition and IC50 values. Compound percentage inhibition was calculated by the following formula: Inhibition %=1−[(compound response−low control)/(high control−low control)]×100%. Potent compounds were titrated and IC50 were calculated by 4 parameter sigmoidal curve fitting formula.
DGAT2 activity was determined by measuring the amount of enzymatic product triolein (1,2,3-Tri(cis-9-octadecenoyl)glycerol) using the membrane prep mentioned above. The assay was carried out in deep well 384 plates in a final volume of 40 μL at room temperature. The assay mixture contained the following: assay buffer (100 mM Tris.Cl, pH 7.0, 20 mM MgCl2, 5% ethanol), 25 μM of diolein, 10 μM of oleoyl-CoA and 10 ng/μL of DGAT2 membrane.
`O=C(NCC1(O)CC1)c1ccc2c(-c3ccccc3Cl)nn(-c3ccc(F)cc3)c2c1` [Example 114, 3-(2-chlorophenyl)-1-(4-fluorophenyl)-N-[(1-hydroxycyclopropyl)methyl]-1H-indazole-6-carboxamide]: the IC50 stood at 0.627 µM.

`CC(C)(C)OC(=O)CCNC(=O)c1ccc2c(-c3ccccc3Cl)nn(-c3ccc(F)cc3)c2c1` [Example 19, tert-butyl N-{[3-(2-chlorophenyl)-1-(4-fluorophenyl)-1H-indazol-6-yl]carbonyl}-beta-alaninate] came in with an IC50 of 0.585 µM.

Compound `COCCNC(=O)c1ccc2c(-c3ccccc3Cl)nn(-c3ccc(F)cc3)c2c1` [Example 45, 3-(2-chlorophenyl)-1-(4-fluorophenyl)-N-(2-methoxyethyl)-1H-indazole-6-carboxamide] registered an IC50 of 0.424 µM.

For the compound `O=C(NCc1ccc(C(F)(F)F)nc1)c1ccc2c(-c3ccccc3Cl)nn(-c3ccc(F)cc3)c2c1` [Example 18, 3-(2-chlorophenyl)-1-(4-fluorophenyl)-N-{[6-(trifluoromethyl)pyridin-3-yl]methyl}-1H-indazole-6-carboxamide], the half-inhibitory concentration (IC50) came out at 0.064 µM.

As for `CC1(NC(=O)c2ccc3c(-c4ccccc4Cl)nn(-c4nnc(C(F)(F)F)s4)c3c2)CCS(=O)(=O)C1` (racemic) [Example 182, 3-(2-chlorophenyl)-N-(3-methyl-1,1-dioxidotetrahydrothiophen-3-yl)-1-[5-(trifluoromethyl)-1,3,4-thiadiazol-2-yl]-1H-indazole-6-carboxamide], the IC50 came to 0.371 µM.

Compound `N#Cc1cccc(-c2nn(-c3ccc(F)cc3)c3cc(C(=O)NC4CCS(=O)(=O)C4)ccc23)c1` (stereo not drawn) [Example 116, 3-(3-cyanophenyl)-N-(1,1-dioxidotetrahydrothiophen-3-yl)-1-(4-fluorophenyl)-1H-indazole-6-carboxamide] registered an IC50 of 0.359 µM.

As to `CC1(NC(=O)c2ccc3c(-c4ccc(Cl)nc4F)nn(-c4ccc(F)cc4)c3c2)CCS(=O)(=O)C1` (single isomer, unassigned) [Example 152-A, 3-(6-chloro-2-fluoropyridin-3-yl)-1-(4-fluorophenyl)-N-(3-methyl-1,1-dioxidotetrahydrothiophen-3-yl)-1H-indazole-6-carboxamide], the IC50 came out at 0.0045 µM.

For `CN1CC(NC(=O)c2ccc3c(-c4ccccc4Cl)nn(-c4ccc(F)cc4)c3c2)CC1=O` (racemic) [Example 22, 3-(2-chlorophenyl)-1-(4-fluorophenyl)-N-(1-methyl-5-oxopyrrolidin-3-yl)-1H-indazole-6-carboxamide], the IC50 stood at 0.102 µM.

Turning to `Cn1nnc2ccc(-c3nn(-c4ccc(F)cc4)c4cc(C(=O)NC5(C)CCS(=O)(=O)C5)ccc34)cc21` (racemic) [Example 163, 1-(4-fluorophenyl)-3-(1-methyl-1H-benzotriazol-6-yl)-N-(3-methyl-1,1-dioxidotetrahydrothiophen-3-yl)-1H-indazole-6-carboxamide], the IC50 amounted to 0.34 µM.

Compound `O=C(NC1(CO)CCC1)c1ccc2c(-c3ccccc3Cl)nn(-c3ccc(F)cc3)c2c1` [Example 88, 3-(2-chlorophenyl)-1-(4-fluorophenyl)-N-[1-(hydroxymethyl)cyclobutyl]-1H-indazole-6-carboxamide] gave a half-maximal inhibitory concentration (IC50) of 0.015 µM.

For `COc1cccc(-n2nc(-c3ccccc3Cl)c3ccc(C(=O)NC4(C)CCS(=O)(=O)C4)cc32)n1` (racemic) [Example 186, 3-(2-chlorophenyl)-1-(6-methoxypyridin-2-yl)-N-(3-methyl-1,1-dioxidotetrahydrothiophen-3-yl)-1H-indazole-6-carboxamide], half-maximal inhibition (IC50) required 0.322 µM.

Compound `CC1(NC(=O)c2ccc3c(-c4cccc(C5CC5)c4)nn(-c4ccc(F)cn4)c3c2)CCS(=O)(=O)C1` (single isomer, unassigned) [Example 125-B, 3-(3-cyclopropylphenyl)-1-(5-fluoropyridin-2-yl)-N-(3-methyl-1,1-dioxidotetrahydrothiophen-3-yl)-1H-indazole-6-carboxamide] registered an IC50 of 0.003 µM.

`CN1CCC(NC(=O)c2ccc3c(-c4ccccc4Cl)nn(-c4ccc(F)cc4)c3c2)C1=O` (racemic) [Example 6, 3-(2-chlorophenyl)-1-(4-fluorophenyl)-N-(1-methyl-2-oxopyrrolidin-3-yl)-1H-indazole-6-carboxamide] had an IC50 of 0.686 µM.

Consider `CC(NC(=O)c1ccc2c(-c3ccccc3Cl)nn(-c3ccc(F)cc3)c2c1)C(O)C(F)(F)F` (stereo not drawn) [Example 81, 3-(2-chlorophenyl)-1-(4-fluorophenyl)-N-(3,3,3-trifluoro-2-hydroxy-1-methylpropyl)-1H-indazole-6-carboxamide], for which the IC50 worked out at 0.088 µM.

The compound `O=C(NCCn1cnnc1)c1ccc2c(-c3ccccc3Cl)nn(-c3ccc(F)cc3)c2c1` [Example 39, 3-(2-chlorophenyl)-1-(4-fluorophenyl)-N-[2-(4H-1,2,4-triazol-4-yl)ethyl]-1H-indazole-6-carboxamide] yielded an IC50 of 0.096 µM.

Compound `N[C@H]1CS(=O)(=O)C[C@@H]1NC(=O)c1ccc2c(-c3ccccc3Cl)nn(-c3ccc(F)cc3)c2c1` [Example 8, N-[(3R,4R)-4-amino-1,1-dioxidotetrahydrothiophen-3-yl]-3-(2-chlorophenyl)-1-(4-fluorophenyl)-1H-indazole-6-carboxamide] showed an IC50 of 0.554 µM.

On to `O=C(NC1CCS(=O)(=O)C1)c1ccc2c(-c3cccnc3Cl)nn(-c3ccc(F)cc3)c2c1` (single isomer, unassigned) [Example 135-A, 3-(2-chloropyridin-3-yl)-N-(1,1-dioxidotetrahydrothiophen-3-yl)-1-(4-fluorophenyl)-1H-indazole-6-carboxamide], for which the IC50 came to 0.065 µM.

With `O=C(NC1CCOCC1)c1ccc2c(-c3ccccc3Cl)nn(-c3ccc(F)cc3)c2c1` [Example 86, 3-(2-chlorophenyl)-1-(4-fluorophenyl)-N-(tetrahydro-2H-pyran-4-yl)-1H-indazole-6-carboxamide], the IC50 was determined as 0.505 µM.

In turn, `CC1(NC(=O)c2ccc3c(-c4ccccc4Cl)nn(-c4ncc(F)cn4)c3c2)CCS(=O)(=O)C1` (racemic) [Example 181, 3-(2-chlorophenyl)-1-(5-fluoropyrimidin-2-yl)-N-(3-methyl-1,1-dioxidotetradioxidotetradioxido-tetradioxidotetra-hydrothiophen-3-yl)-1H-indazole-6-carboxamide] came in with an IC50 of 0.391 µM.

Compound `O=C(NC1CCOC1)c1ccc2c(-c3ccccc3Cl)nn(-c3ccc(F)cc3)c2c1` (racemic) [Example 77, 3-(2-chlorophenyl)-1-(4-fluorophenyl)-N-(tetrahydrofuran-3-yl)-1H-indazole-6-carboxamide] came in with an IC50 of 0.059 µM.

In turn, `O=C(NC1CCS(=O)(=O)C1)c1ccc2c(-c3cccnc3)nn(-c3ccc(F)cc3)c2c1` (single isomer, unassigned) [Example 134-A, N-(1,1-dioxidotetrahydrothiophen-3-yl)-1-(4-fluorophenyl)-3-pyridin-3-yl-1H-indazole-6-carboxamide] displayed an IC50 of 0.212 µM.

The compound `O=C1CC(NC(=O)c2ccc3c(-c4ccccc4Cl)nn(-c4ccc(F)cc4)c3c2)C(=O)N1` (racemic) [Example 57, 3-(2-chlorophenyl)-N-(2,5-dioxopyrrolidin-3-yl)-1-(4-fluorophenyl)-1H-indazole-6-carboxamide] showed an IC50 of 0.669 µM.

For the compound `COC(=O)C1(NC(=O)c2ccc3c(-c4ccccc4Cl)nn(-c4ccc(F)cc4)c3c2)CC[S+]([O-])C1` (racemic) [Example 89, methyl 3-({[3-(2-chlorophenyl)-1-(4-fluorophenyl)-1H-indazol-6-yl]carbonyl}amino)tetra-hydrothiophene-3-carboxylate 1-oxide], the IC50 was found to be 0.125 µM.

Take `CCOC(=O)C1(NC(=O)c2ccc3c(-c4ccccc4Cl)nn(-c4ccc(F)cc4)c3c2)CC1` [Example 62, ethyl 1-({[3-(2-chlorophenyl)-1-(4-fluorophenyl)-1H-indazol-6-yl]carbonyl}amino)cyclopropane carboxylate]: the midpoint of inhibition, the IC50, lay at 0.58 µM.

As usually defined, the IC50 is the midpoint of a concentration-inhibition curve.
